# Reference: patent publication US8859513B2, “Use of 1-beta-D-ribofuranosyl-1H-1,2,4-triazole-3-carboxamide for the treatment of infectious salmon anemia” (Laboratorio de Diagnostico Gam, S.A., priority 2010, dated 2014)
# Where two headings read alike, the source gives them in different places.
# Assays:
# [1] = test system: ISA virus; test: Inhibition assay of the replicative cycle of ISAV in SHK-1 cells (real-time RT-PCR of supernatant); assay type: cell-based, Infectious Salmon Anemia Virus
# [2] = test system: RNA viruses; conditions: regularly shown, in general; read-out: EC50 values (effective concentration 50%); cited from earlier work
# [3] = in vitro; conditions: Atlantic salmon
# [4] = test system: ISA virus; conditions: for hematocrit: untreated infected C3 42.1%
# [5] = test system: IPNV; conditions: cited from earlier work
# [6] = test system: ISA virus; conditions: 400 μg/Kg intraperitoneal
# [7] = Toxicity in healthy uninfected smolt fish (tank C2), oral medicated feed; conditions: tank C2, dose of 1600 μg/mL (so in the source), normal 44-64%
# [8] = test system: VHSV virus (Viral Hemorrhagic Septicemia Virus); conditions: cited from earlier work
# [9] = patients treated with Rebetol; cited from earlier work
smiles,measurement,setting,value
"NC(=O)c1ncn([C@@H]2O[C@H](CO)[C@@H](O)[C@H]2O)n1 [ribavirin, 1-beta-D-ribofuranosyl-1H-1,2,4-triazole-3-carboxamide]",EC50,"[1]; Infectious salmon anemia virus, 72 h, read-out: concentration which inhibits 50% of ISA virus replication (EC50)",~0.4 µg/mL
same,EC50,[2],≥ 1000 nM
same,CC50 at 3 days,[3],> 400 µg/mL
same,viral load in dead fish,"[4]; highest dose (T1) compared with T2 and untreated C3, FIG. 8",significantly lower
same,viral load in intraperitoneally infected fish,"[4]; highest dose (T1), FIG. 9",lower
same,signs at necropsy,"[4]; infected treated fish of tanks T1 and T2, FIGS. 14 and 15",mild inflammatory signs
same,viral load in intraperitoneally infected fish versus untreated (C3),"[4]; lowest dose (T2), FIG. 9",practically the same
same,hematocrit,"[4]; tank T1, dose 800 μg/mL (so in the source)",~45%
same,hematocrit,"[4]; tank T2, dose 400 μg/mL (so in the source)",~45%
same,viral load versus untreated fish (C3),"[4]; treated fish T1 (800 μg/kg) and T2 (400 μg/kg), heart, real-time RT-PCR",in all cases lower than that of the untreated fish
same,effect of the higher dose on rate of death,[5]; 400 μg,produced no greater decrease in the rate of death
same,decrease in rate of dead fish,"[5]; bath exposure once during two hours, increasing concentrations",about 5%
same,condition of the analyzed organs during necropsies,[6],slight improvement
same,viral load over treatment days,"[6]; heart, FIG. 17",downward trend
same,average hematocrit,[7],54%
same,RNA inhibition,"[8]; 25 μg/ml added at 0 hours post infection, at 10 hours post infection",99.8%
same,inhibition of the virus,"[8]; EPC cells, concentrations of 5, 10 and 25 μg/ml",strong inhibition
same,primary toxicity,[9],triggers hemolytic anemia
CCOC(=O)C1=C[C@@H](OC(CC)CC)[C@H](NC(C)=O)[C@@H](N)C1 [oseltamivir],inhibition of the replication of ISA virus,"[1]; concentrations as high as 300 μg/mL, FIG. 1",no more than 60%
O=C(O)C1=C[C@@H](O)[C@@H](O)[C@H](O)C1 [shikimic acid],viral replication inhibition,"[1]; up to concentrations of 300 μg/ml, FIG. 2",no viral replication inhibition
